Data taken from patent US20230374038A1, “MODULATORS OF CYSTIC FIBROSIS TRANSMEMBRANE CONDUCTANCE REGULATOR” (VERTEX PHARMACEUTICALS INCORPORATED, priority 2020, published 2023).
pEC50: −log10 of the molar value.

Molecular target: CFTR (Homo sapiens, UniProt P13569)
Experiment: Membrane Potential Dye, Enteroid Assay B
Format: cell-based
Conditions: for pEC50: read-out: Ent. B EC50
How it was run: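 Human intestinal enteroids seeded at 5000 cells/well, treated with compound 18-24 h at 37 °C, then loaded 25 min with methyl oxonol membrane-potential dye plus CaCC blockers. Chloride transport started in chloride-free buffer with 10 μM forskolin, 100 μM IBMX and 300 nM Compound III, read 15 min; expressed as % of triple-combination control.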

Chain of CFTR (P13569 with tags, fused parts or gaps DEL508-508): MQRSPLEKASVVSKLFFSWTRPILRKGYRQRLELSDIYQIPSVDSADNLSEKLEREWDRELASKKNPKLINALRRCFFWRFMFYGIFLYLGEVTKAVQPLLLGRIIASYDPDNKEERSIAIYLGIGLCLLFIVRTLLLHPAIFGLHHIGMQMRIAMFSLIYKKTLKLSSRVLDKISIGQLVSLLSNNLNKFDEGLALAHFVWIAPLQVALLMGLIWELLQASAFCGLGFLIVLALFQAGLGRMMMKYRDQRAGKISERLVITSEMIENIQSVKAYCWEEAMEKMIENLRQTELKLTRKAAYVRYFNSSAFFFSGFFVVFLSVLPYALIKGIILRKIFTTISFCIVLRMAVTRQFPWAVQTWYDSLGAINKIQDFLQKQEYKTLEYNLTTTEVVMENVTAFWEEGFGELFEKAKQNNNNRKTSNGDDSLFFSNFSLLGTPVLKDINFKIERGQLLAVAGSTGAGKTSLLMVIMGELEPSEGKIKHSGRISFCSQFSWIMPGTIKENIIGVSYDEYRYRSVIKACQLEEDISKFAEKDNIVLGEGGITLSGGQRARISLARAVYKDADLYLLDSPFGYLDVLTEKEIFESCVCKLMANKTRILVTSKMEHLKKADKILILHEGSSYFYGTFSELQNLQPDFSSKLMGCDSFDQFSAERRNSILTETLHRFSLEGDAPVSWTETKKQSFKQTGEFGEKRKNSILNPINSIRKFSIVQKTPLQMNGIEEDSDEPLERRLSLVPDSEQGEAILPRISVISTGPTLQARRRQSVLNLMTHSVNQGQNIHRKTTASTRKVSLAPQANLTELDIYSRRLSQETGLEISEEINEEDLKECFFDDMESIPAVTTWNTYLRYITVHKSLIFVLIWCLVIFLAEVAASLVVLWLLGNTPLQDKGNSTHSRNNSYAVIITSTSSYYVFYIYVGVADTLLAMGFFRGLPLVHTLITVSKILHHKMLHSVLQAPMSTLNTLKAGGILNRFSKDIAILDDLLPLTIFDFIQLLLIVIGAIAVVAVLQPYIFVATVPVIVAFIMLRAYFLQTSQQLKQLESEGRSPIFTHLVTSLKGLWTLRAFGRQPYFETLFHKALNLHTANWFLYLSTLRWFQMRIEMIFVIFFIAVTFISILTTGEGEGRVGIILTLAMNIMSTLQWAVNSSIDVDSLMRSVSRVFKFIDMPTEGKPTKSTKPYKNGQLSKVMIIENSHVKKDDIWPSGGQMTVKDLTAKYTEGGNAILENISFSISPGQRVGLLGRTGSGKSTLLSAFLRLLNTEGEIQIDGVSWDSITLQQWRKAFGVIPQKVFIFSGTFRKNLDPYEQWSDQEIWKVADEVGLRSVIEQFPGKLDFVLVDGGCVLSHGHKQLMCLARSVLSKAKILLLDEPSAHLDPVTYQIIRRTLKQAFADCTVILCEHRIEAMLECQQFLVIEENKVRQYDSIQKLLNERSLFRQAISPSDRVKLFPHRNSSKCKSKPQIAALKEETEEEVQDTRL

| Structure (SMILES) | Ent. B Max Activity | pEC50 |
| --- | --- | --- |
| Cc1cccc(C)c1-c1nc2nc(c1-c1cnn(C)c1)OC[C@@H](C)NC(=O)c1cccc(c1)S(=O)(=O)N2 [Compound 146] | + (+ is <30%) | – |
| Cc1cccc(C)c1-c1nc2nc(c1-c1cnn(CC(C)C)c1)OC[C@@H](C)NC(=O)c1cccc(c1)S(=O)(=O)N2 [Compound 124, (11R)-6-(2,6-Dimethylphenyl)-7-(1-isobutylpyrazol-4-yl)-11-methyl-2,2-dioxo-9-oxa-2λ^6-thia-3,5,12,19-tetrazatricyclo[12.3.1.14,8]nonadeca-1(18),4(19),5,7,14,16-hexaen-13-one] | ++ (++ is 30-60%) | 4.52 to 5.52 |
| Cc1cccc(C)c1-c1nc2nc(c1C1CCOCC1)O[C@H](C)CNC(=O)c1cccc(c1)S(=O)(=O)N2 [Compound 151] | ++ (++ is 30-60%) | – |
| Cc1cccc(C)c1-c1nc2nc(c1-c1ccn(C)n1)O[C@H](C)CNC(=O)c1cccc(c1)S(=O)(=O)N2 [Compound 129] | + (+ is <30%) | – |
| Cc1cccc(C)c1-c1nc2nc(c1-c1cnn(CC(C)C)c1)O[C@H](C)CNC(=O)c1cccc(c1)S(=O)(=O)N2 [Compound 127] | +++ (+++ is >60%) | 5.52 to 6.00 |
| Cc1cccc(C)c1-c1nc2nc(c1F)OC[C@@H](CC(C)C)N(C1CC3(CC3)C1)C(=O)c1cccc(c1)S(=O)(=O)N2 [Compound 175] | +++ (+++ is >60%) | > 6.00 |
| COCCN1CCC2(CC1)CC(N1C(=O)c3cccc(c3)S(=O)(=O)Nc3nc(c(OC)c(-c4c(C)cccc4C)n3)OC[C@H]1CC(C)C)C2 [Compound 166, (11R)-6-(2,6-dimethylphenyl)-11-isobutyl-7-methoxy-12-[7-(2-methoxyethyl)-7-azaspiro[3.5]nonan-2-yl]-2,2-dioxo-9-oxa-2λ^6-thia-3,5,12,19-tetrazatricyclo[12.3.1.14,8]nonadeca-1(18),4(19),5,7,14,16-hexaen-13-one] | +++ (+++ is >60%) | > 6.00 |
| Cc1cccc(C)c1-c1nc2nc(c1C)OC[C@@H](CC(C)(C)C(F)(F)F)N(C1CC3(CCNCC3)C1)C(=O)c1cccc(c1)S(=O)(=O)N2 [Compound 157, (11R)-12-{7-Azaspiro[3.5]nonan-2-yl}-6-(2,6-dimethylphenyl)-7-methyl-11-(3,3,3-trifluoro-2,2-dimethylpropyl)-9-oxa-2λ^6-thia-3,5,12,19-tetraazatricyclo[12.3.1.14,8]nonadeca-1(17),4(19),5,7,14(18),15-hexaene-2,2,13-trione] | +++ (+++ is >60%) | > 6.00 |
| Cc1cccc(C)c1-c1nc2nc(c1F)OC[C@@H](CC(C)C)N(C1CC3(CCN(C(=O)OC(C)(C)C)CC3)C1)C(=O)c1cccc(c1)S(=O)(=O)N2 [Compound 187] | +++ (+++ is >60%) | > 6.00 |
| COC1CC(N2C(=O)c3cccc(c3)S(=O)(=O)Nc3nc(c(C)c(-c4c(C)cccc4C)n3)OC[C@H]2CC2(C(F)(F)F)CC2)C1 (stereo partly shown) [Compound 100] | +++ (+++ is >60%) | > 6.00 |
| Cc1cccc(C)c1-c1nc2nc(c1C)OC[C@@H](CC(C)C)N(C1CC3(CCN(C)CC3)C1)C(=O)c1cccc(c1)S(=O)(=O)N2 [Compound 74] | +++ (+++ is >60%) | > 6.00 |
| Cc1cccc(C)c1-c1nc2nc(c1C)OC[C@@H](CC(C)(C)C)N(C1CC3(CC(N)C3)C1)C(=O)c1cccc(c1)S(=O)(=O)N2 (stereo partly shown) [Compound 96] | +++ (+++ is >60%) | > 6.00 |
| Cc1cccc(C)c1-c1nc2nc(c1-c1cccnc1)OC[C@@H](C)NC(=O)c1cccc(c1)S(=O)(=O)N2 [Compound 143] | + (+ is <30%) | – |
| Cc1cccc(C)c1-c1nc2nc(c1/C=C/C(C)(C)C)OC[C@@H](C)NC(=O)c1cccc(c1)S(=O)(=O)N2 [Compound 138] | ++ (++ is 30-60%) | > 6.00 |
| Cc1cccc(C)c1-c1nc2nc(c1C)OC[C@@H](CC(C)(C)C)N(C1CC3(CC(NC(=O)OC(C)C)C3)C1)C(=O)c1cccc(c1)S(=O)(=O)N2 (single isomer, unassigned) [Compound 62] | +++ (+++ is >60%) | > 6.00 |
| Cc1cccc(C)c1-c1nc2nc(c1C1CCN(C(=O)OC(C)(C)C)CC1)OC[C@@H](C)NC(=O)c1cccc(c1)S(=O)(=O)N2 [Compound 141] | + (+ is <30%) | – |
| Cc1cccc(C)c1-c1nc2nc(c1C)OC[C@@H](CC(C)(C)O)N(Cc1ncccn1)C(=O)c1cccc(c1)S(=O)(=O)N2 [Compound 111] | +++ (+++ is >60%) | 5.52 to 6.00 |
| Cc1cccc(C)c1-c1nc2nc(c1OC(C)C)OC[C@@H](CC(C)C)N(C1CC3(CC3)C1)C(=O)c1cccc(c1)S(=O)(=O)N2 [Compound 189] | +++ (+++ is >60%) | > 6.00 |
| Cc1cccc(C)c1-c1nc2nc(c1C)OCCNC(=O)c1cccc(c1)S(=O)(=O)N2 [Compound 35, 6-(2,6-Dimethylphenyl)-7-methyl-9-oxa-2λ^6-thia-3,5,12,19-tetraazatricyclo[12.3.1.14,8]nonadeca-1(18),4,6,8(19),14,16-hexaene-2,2,13-trione] | ++ (++ is 30-60%) | 4.52 to 5.52 |
| Cc1cccc(C)c1-c1nc2nc(c1C)OC[C@@H](CC1(C(F)(F)F)CC1)N(C1CC3(CC(NC(=O)OC(C)C)C3)C1)C(=O)c1cccc(c1)S(=O)(=O)N2 (stereo in doubt) [Compound 87] | +++ (+++ is >60%) | > 6.00 |
| Cc1cccc(C)c1-c1nc2nc(c1-c1ccncc1)O[C@H](C)CNC(=O)c1cccc(c1)S(=O)(=O)N2 [Compound 132] | + (+ is <30%) | – |
| COC1CC(N2C(=O)c3cccc(c3)S(=O)(=O)Nc3nc(c(C)c(-c4c(C)cccc4C)n3)OC[C@H]2CC(C)(C)C)C1 (stereo partly shown) [Compound 84] | +++ (+++ is >60%) | > 6.00 |

Other lines, results leading:

| Ent. B Max Activity | pEC50 | Structure (SMILES) |
| --- | --- | --- |
| +++ (+++ is >60%) | > 6.00 | Cc1cccc(C)c1-c1nc2nc(c1C)OC[C@@H](CC(C)C)N([C@H]1C[C@@]3(C[C@H](N(C)C)C3)C1)C(=O)c1cccc(c1)S(=O)(=O)N2 (single isomer, unassigned) [Compound 53] |
| +++ (+++ is >60%) | > 6.00 | COC(=O)NC1CC2(C1)CC(N1C(=O)c3cccc(c3)S(=O)(=O)Nc3nc(c(C)c(-c4c(C)cccc4C)n3)OC[C@H]1CC(C)(C)C)C2 (single isomer, unassigned) [Compound 64] |
| + (+ is <30%) | > 6.00 | Cc1cccc(C)c1-c1nc2nc(c1C)OCCCN(C1CC3(CC(NC(=O)OC(C)(C)C)C3)C1)C(=O)c1cccc(c1)S(=O)(=O)N2 (stereo not shown) [Compound 38] |
| +++ (+++ is >60%) | > 6.00 | Cc1cccc(C)c1-c1nc2nc(c1C)OC[C@@H](CC1(C(F)(F)F)CC1)N(C1CC3(CCN(C(=O)OC(C)C)CC3)C1)C(=O)c1cccc(c1)S(=O)(=O)N2 [Compound 76] |
| +++ (+++ is >60%) | > 6.00 | COc1ccc(-c2c3nc(nc2-c2c(C)cccc2C)NS(=O)(=O)c2cccc(c2)C(=O)NC[C@@H](C)O3)cc1 [Compound 130] |
| +++ (+++ is >60%) | > 6.00 | Cc1cccc(C)c1-c1nc2nc(c1-c1ccccc1)O[C@H](C)CNC(=O)c1cccc(c1)S(=O)(=O)N2 [Compound 119, (10R)-6-(2,6-dimethylphenyl)-10-methyl-2,2-dioxo-7-phenyl-9-oxa-2λ^6-thia-3,5,12,19-tetrazatricyclo[12.3.1.14,8]nonadeca-1(18),4(19),5,7,14,16-hexaen-13-one] |
| +++ (+++ is >60%) | > 6.00 | Cc1cccc(C)c1-c1nc2nc(c1C)OC[C@@H](CC(C)C)N([C@H]1C[C@@H](OC(C)C)C1)C(=O)c1cccc(c1)S(=O)(=O)N2 (single isomer, unassigned) [Compound 48] |
| +++ (+++ is >60%) | > 6.00 | Cc1cccc(C)c1-c1nc2nc(c1C)OC(c1ccc(CC3(C(F)(F)F)CC3)cn1)CN(C)C(=O)c1cccc(c1)S(=O)(=O)N2 (stereo not shown) [Compound 203] |
| +++ (+++ is >60%) | > 6.00 | CCc1c2nc(nc1-c1c(C)cccc1C)NS(=O)(=O)c1cccc(c1)C(=O)N(C1CC3(CC3)C1)[C@H](CC(C)(C)C)CO2 [Compound 188] |
| +++ (+++ is >60%) | > 6.00 | Cc1cccc(C)c1-c1nc2nc(c1C)OC[C@@H](CC(C)(C)C)N(C1CC3(CC(N(C)C)C3)C1)C(=O)c1cccc(c1)S(=O)(=O)N2 (stereo partly shown) [Compound 95] |
| +++ (+++ is >60%) | > 6.00 | COc1c2nc(nc1-c1c(C)cccc1C)NS(=O)(=O)c1cccc(c1)C(=O)N(C1CC3(CC3)C1)[C@H](CC(C)C)CO2 [Compound 179] |
| ++ (++ is 30-60%) | > 6.00 | Cc1cccc(C)c1-c1nc2nc(c1C)OC[C@@H](CC(C)C)N([C@H]1C[C@@H](OC(C)C)C1)C(=O)c1cccc(c1)S(=O)(=O)N2 (single isomer, unassigned) [Compound 47] |
| +++ (+++ is >60%) | > 6.00 | COc1c2nc(nc1-c1c(C)cccc1C)NS(=O)(=O)c1cccc(c1)C(=O)N[C@H](CC(C)C)CO2 [Compound 180] |
| +++ (+++ is >60%) | > 6.00 | Cc1cccc(C)c1-c1nc2nc(c1C)OC[C@@H](CC1(C(F)(F)F)CC1)N(C1CC3(CC(N)C3)C1)C(=O)c1cccc(c1)S(=O)(=O)N2 (stereo partly shown) [Compound 93] |
| +++ (+++ is >60%) | > 6.00 | Cc1cccc(C)c1-c1nc2nc(c1C)O[C@@H]1CN(C3CC4(CCCCC4)C3)C[C@H]1NC(=O)c1cccc(c1)S(=O)(=O)N2 [Compound 104, (3R,7R)-19-(2,6-dimethylphenyl)-20-methyl-5-{spiro[3.5]nonan-2-yl}-2-oxa-15λ^6-thia-5,8,16,18,21-pentaazatetracyclo[15.3.1.110,14.03,7]docosa-1(21),10,12,14(22),17,19-hexaene-9,15,15-trione] |
| ++ (++ is 30-60%) | > 6.00 | Cc1cccc(C)c1-c1nc2nc(c1C#N)OC[C@@H](CC(C)C)N(C1CC3(CC3)C1)C(=O)c1cccc(c1)S(=O)(=O)N2 [Compound 174] |
